Measurements: ChEMBL document CHEMBL3352461, “Discovery and optimization of 5-fluoro-4,6-dialkoxypyrimidine GPR119 agonists” (Bioorg Med Chem Lett, 2014)
One block for each compound: values may come before it. The source made the active and inactive calls. The calls are words filed in the database; no cut-off is given here.

Assays:
[1] = Stability in dog hepatocytes assessed as compound remaining after 90 mins; type: ADME, cell-based, Canis lupus familiaris, Hepatocyte; conditions: read-out: Stability
CYP2C9 = CYP2C9 (Homo sapiens, UniProt P11712); assay: Ratio of APD597 IC50 to compound IC50 for CYP2C9 (unknown origin); type: ADME; conditions: read-out: Ratio IC50
Cytochrome P450 2D6 = Cytochrome P450 2D6 (Homo sapiens, UniProt P10635); assay: Inhibition of CYP2D6 (unknown origin); type: ADME
[2] = Efflux ratio of permeability in human Caco2 cells; type: ADME, cell-based; conditions: Caco-2
[3] = Stability in human hepatocytes assessed as compound remaining after 90 mins; type: ADME, cell-based, Hepatocyte; conditions: read-out: Stability
[4] = Stability in rat hepatocytes assessed as compound remaining after 90 mins; type: ADME, cell-based, Hepatocyte; conditions: read-out: Stability
[5] = Elimination half life in Sprague-Dawley rat at 2 mg/kg, po; type: ADME, organism-based; set-up: dose 2 mg/kg, route oral; conditions: in vivo, read-out: beta t1/2 (converted)
Cytochrome P450 2C19 = Cytochrome P450 2C19 (Homo sapiens, UniProt P33261); assay: Inhibition of CYP2C19 (unknown origin); type: ADME
Cytochrome P450 3A4 = Cytochrome P450 3A4 (Homo sapiens, UniProt P08684); assay: Inhibition of CYP3A4 (unknown origin); type: ADME
[6] = target: T1, Glucose-dependent insulinotropic receptor (Homo sapiens, UniProt Q8TDV5); assay: […] of human GPR119 activity by homogeneous time resolved fluorescence cyclase (cAMP) assay; type: functional
T1 sequence (Q8TDV5 whole entry): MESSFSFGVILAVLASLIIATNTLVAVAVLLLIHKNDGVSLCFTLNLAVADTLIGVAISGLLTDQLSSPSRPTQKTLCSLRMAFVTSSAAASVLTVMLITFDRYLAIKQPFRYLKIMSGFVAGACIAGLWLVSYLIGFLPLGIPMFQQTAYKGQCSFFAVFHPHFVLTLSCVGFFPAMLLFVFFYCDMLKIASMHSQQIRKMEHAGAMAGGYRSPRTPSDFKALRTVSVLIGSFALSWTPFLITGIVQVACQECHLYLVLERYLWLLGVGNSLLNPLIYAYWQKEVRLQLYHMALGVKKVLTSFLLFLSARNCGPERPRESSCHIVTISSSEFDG

Rattus norvegicus [7] = assay: Clearance in Sprague-Dawley rat at 2 mg/kg, iv and po; type: ADME, organism-based; set-up: dose 2 mg/kg, route oral; conditions: in vivo
Cytochrome P450 2C9 = Cytochrome P450 2C9 (Homo sapiens, UniProt P11712); assay: Inhibition of CYP2C9 (unknown origin); type: ADME
Mus musculus [8] = assay: Increase in GIP release in normoglycemic 129SVE mouse at 3 to 10 mg/kg, po measured after 45 mins; type: functional, organism-based
Rattus norvegicus [9] = assay: Reduction in plasma glucose level in Zucker diabetic fatty rat at 10 to 30 mg/kg, po administered 30 mins prior to challenge measured in 20 mins interval for 120 mins by oral glucose tolerance test relative to vehicle-treated control in presence of sitagliptin; type: functional; set-up: scale not given: the % may be the effect or the level left; conditions: dose mg/kg 10-30
Rattus norvegicus [10] = assay: Volume of distribution at steady state in Sprague-Dawley rat at 2 mg/kg, iv and po; type: ADME, organism-based; set-up: dose 2 mg/kg, route oral; conditions: in vivo
[11] = target: T2, Glucose-dependent insulinotropic receptor (Rattus norvegicus, UniProt Q7TQN8); assay: […] of rat GPR119 activity by homogeneous time resolved fluorescence cyclase (cAMP) assay; type: functional
T2 sequence (Q7TQN8 whole entry): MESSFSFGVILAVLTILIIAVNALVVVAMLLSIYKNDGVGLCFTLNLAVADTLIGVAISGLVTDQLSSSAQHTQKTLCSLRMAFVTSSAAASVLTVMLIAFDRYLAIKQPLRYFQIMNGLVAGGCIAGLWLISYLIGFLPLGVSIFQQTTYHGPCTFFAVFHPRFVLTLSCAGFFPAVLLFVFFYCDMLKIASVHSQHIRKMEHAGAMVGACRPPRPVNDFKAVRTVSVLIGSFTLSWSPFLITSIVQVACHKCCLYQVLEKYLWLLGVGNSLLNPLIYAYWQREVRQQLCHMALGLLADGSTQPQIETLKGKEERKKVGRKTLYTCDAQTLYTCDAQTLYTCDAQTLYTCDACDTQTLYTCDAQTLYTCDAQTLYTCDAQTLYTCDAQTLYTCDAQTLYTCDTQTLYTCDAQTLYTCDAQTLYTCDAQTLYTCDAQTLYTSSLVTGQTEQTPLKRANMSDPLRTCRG

Rattus norvegicus [12] = assay: AUClast in Sprague-Dawley rat at 2 mg/kg, iv and po; type: ADME, organism-based, Plasma; set-up: dose 2 mg/kg, route oral; conditions: in vivo
Rattus norvegicus [13] = assay: Reduction in plasma glucose level in Zucker diabetic fatty rat at 10 to 30 mg/kg, po administered 30 mins prior to challenge measured in 20 mins interval for 120 mins by oral glucose tolerance test relative to vehicle-treated control; type: functional; set-up: scale not given: the % may be the effect or the level left; conditions: dose mg/kg 10-30
Cytochrome P450 1A2 = target: T3, Cytochrome P450 1A2 (Homo sapiens, UniProt P05177); assay: Inhibition of CYP1A2 (unknown origin); type: ADME
T3 sequence (P05177 whole entry): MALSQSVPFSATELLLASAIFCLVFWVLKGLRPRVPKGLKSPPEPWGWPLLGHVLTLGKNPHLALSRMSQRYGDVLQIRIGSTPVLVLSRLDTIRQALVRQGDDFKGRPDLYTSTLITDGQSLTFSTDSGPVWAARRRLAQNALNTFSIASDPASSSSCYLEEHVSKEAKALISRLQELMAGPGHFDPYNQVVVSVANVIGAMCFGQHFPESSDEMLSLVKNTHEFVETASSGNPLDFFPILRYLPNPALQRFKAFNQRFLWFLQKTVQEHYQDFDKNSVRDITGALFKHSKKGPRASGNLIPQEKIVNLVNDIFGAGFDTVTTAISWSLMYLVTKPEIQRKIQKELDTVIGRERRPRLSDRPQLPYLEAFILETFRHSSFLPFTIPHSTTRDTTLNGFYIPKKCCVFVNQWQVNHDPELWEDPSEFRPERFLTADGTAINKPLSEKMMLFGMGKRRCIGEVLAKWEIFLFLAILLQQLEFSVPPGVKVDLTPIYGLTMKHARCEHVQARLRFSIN

Rattus norvegicus [14] = assay: Bioavailability in Sprague-Dawley rat at 2 mg/kg, iv and po; type: ADME, organism-based; conditions: in vivo
[15] = target: T4, Glucose-dependent insulinotropic receptor (Rattus norvegicus) (UniProt Q7TQN8); assay: […] of rat GPR119 activity by homogeneous time resolved fluorescence cyclase (cAMP) assay relative to AR231453; type: functional
T4 sequence (whole entry): T2 sequence (Q7TQN8 whole entry)

[16] = Stability in monkey hepatocytes assessed as compound remaining after 90 mins; type: ADME, cell-based, Macaca mulatta, Hepatocyte; conditions: rhesus monkey, read-out: Stability
[17] = target: T5, Glucose-dependent insulinotropic receptor (Homo sapiens) (UniProt Q8TDV5); assay: […] of human GPR119 activity by homogeneous time resolved fluorescence cyclase (cAMP) assay relative to AR231453; type: functional
T5 sequence (whole entry): T1 sequence (Q8TDV5 whole entry)

Mus musculus [18] = assay: Reduction in plasma glucose level in normoglycemic 129SVE mouse at 3 to 10 mg/kg, po administered 30 mins prior to challenge measured in 20 mins interval for 120 mins by oral glucose tolerance test relative to vehicle-treated control; type: functional; set-up: scale not given: the % may be the effect or the level left; conditions: dose mg/kg 3-10
Rattus norvegicus [19] = assay: Reduction in plasma glucose level in Zucker diabetic fatty rat at 3 mg/kg, po administered 30 mins prior to challenge measured in 20 mins interval for 120 mins by oral glucose tolerance test relative to vehicle-treated control; type: functional; set-up: scale not given: the % may be the effect or the level left

Cytochrome P450 2C19, sequence (P33261 whole entry): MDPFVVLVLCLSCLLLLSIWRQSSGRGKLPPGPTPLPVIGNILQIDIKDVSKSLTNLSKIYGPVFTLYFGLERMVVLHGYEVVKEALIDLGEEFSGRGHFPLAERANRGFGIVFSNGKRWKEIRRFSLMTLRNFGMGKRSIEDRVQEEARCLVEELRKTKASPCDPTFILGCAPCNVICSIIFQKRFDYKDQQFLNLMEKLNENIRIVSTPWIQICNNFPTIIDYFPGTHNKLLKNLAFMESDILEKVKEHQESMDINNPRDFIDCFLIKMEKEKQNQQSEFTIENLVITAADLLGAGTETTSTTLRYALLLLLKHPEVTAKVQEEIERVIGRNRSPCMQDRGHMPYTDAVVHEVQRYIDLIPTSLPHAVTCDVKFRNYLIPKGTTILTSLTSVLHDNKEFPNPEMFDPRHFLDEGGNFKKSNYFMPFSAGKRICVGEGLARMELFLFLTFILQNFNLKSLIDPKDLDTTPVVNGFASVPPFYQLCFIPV
Cytochrome P450 2C9, sequence (P11712 whole entry): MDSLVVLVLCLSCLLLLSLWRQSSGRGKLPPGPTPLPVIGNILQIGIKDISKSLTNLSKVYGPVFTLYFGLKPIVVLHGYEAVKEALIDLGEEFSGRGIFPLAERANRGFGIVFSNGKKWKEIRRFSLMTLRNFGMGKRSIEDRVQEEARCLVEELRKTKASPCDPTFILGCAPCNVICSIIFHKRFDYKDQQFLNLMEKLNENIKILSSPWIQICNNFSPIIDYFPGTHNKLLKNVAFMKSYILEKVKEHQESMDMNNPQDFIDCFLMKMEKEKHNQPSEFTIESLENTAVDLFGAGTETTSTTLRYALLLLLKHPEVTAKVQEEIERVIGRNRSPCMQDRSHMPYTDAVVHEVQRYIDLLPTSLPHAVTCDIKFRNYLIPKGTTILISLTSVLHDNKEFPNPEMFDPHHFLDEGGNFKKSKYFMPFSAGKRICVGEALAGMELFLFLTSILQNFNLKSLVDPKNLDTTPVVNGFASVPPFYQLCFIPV
CYP2C9, sequence (P11712 whole entry): as above
Cytochrome P450 2D6, sequence (P10635 whole entry): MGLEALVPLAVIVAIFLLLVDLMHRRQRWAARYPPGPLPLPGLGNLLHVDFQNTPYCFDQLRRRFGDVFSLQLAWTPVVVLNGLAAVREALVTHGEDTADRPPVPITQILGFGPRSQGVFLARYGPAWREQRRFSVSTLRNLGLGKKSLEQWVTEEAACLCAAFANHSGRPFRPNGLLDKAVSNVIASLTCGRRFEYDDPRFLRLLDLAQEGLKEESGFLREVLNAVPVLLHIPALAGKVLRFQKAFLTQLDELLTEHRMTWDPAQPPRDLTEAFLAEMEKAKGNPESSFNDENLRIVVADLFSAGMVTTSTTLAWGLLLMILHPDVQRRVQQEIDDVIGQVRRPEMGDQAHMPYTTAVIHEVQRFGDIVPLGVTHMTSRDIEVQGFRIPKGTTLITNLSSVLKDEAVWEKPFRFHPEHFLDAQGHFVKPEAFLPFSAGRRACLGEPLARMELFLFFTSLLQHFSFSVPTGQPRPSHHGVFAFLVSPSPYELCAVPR
Cytochrome P450 3A4, sequence (P08684 whole entry): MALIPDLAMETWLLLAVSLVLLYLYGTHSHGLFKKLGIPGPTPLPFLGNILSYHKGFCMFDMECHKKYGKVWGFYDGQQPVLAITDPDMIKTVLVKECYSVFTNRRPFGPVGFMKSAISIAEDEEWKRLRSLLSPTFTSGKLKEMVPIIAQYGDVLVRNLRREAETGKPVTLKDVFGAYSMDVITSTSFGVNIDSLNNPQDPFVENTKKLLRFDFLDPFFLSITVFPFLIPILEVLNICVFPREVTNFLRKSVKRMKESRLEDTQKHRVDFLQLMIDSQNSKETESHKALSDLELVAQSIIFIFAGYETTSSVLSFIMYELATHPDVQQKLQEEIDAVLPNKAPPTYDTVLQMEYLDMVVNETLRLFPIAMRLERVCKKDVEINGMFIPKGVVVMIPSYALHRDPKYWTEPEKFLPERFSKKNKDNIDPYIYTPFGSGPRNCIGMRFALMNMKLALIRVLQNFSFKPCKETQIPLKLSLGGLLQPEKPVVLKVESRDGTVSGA

remaining at 1.5 h [1]: 89%
inhibition (INH) (Cytochrome P450 2D6): Not Active
efflux ratio [2]: 1
remaining at 1.5 h [3]: 100%
remaining at 1.5 h [4]: 51%
half-life [5]: 2.71 h
IC50 (Cytochrome P450 2C19): 23.4 µM
inhibition (INH) (Cytochrome P450 3A4): Not Active
EC50 [6]: 0.0138 µM
CL (Rattus norvegicus [7]): 19.8 mL/min/kg
IC50 (Cytochrome P450 2C9): 25.7 µM
Vdss (Rattus norvegicus [10]): 2.91 L/kg
EC50 [11]: 0.169 µM
AUClast (Rattus norvegicus [12]): 1220 ng·h/mL
inhibition (INH) (Cytochrome P450 1A2): Not Active
F (Rattus norvegicus [14]): 72.7%
Efficacy [15]: 93%
remaining at 1.5 h [16]: 50%
Efficacy [17]: 94%
SMILES: Cc1nc(S(C)(=O)=O)ccc1Oc1ncnc(OC2CCN(C(=O)OC3(C)CC3)CC2)c1F
selectivity ratio (CYP2C9): 4
Activity (Mus musculus [8]): Active
Activity (Rattus norvegicus [9]): 70%
Activity (Rattus norvegicus [13]): 50%
Activity (Mus musculus [18]): 35%

SMILES: N[C@@H](CC(=O)N1CCn2c(nnc2C(F)(F)F)C1)Cc1cc(F)c(F)cc1F [SITAGLIPTIN]
Activity (Rattus norvegicus [19]): 70%
